Assay results reported in PMC13376213, “Systematic discovery of motif-based interactions of the auxiliary domains of USP family deubiquitinases” (Nature Communications, 2026).
Where a chain is given by its changes, count along the chain named. Read-outs that look alike come from different tables or passages of the source. Blank lines part the entries; values can stand above or below the compound they belong to. Peptide text beside a SMILES is read from it. * marks the point of attachment. FITC = O=C1OC2(c3ccc(O)cc3Oc3cc(O)ccc32)c2ccc(NC(=S)*)cc21

Assays:
USP33 DUSP2 N835A = molecular target: T1, USP33 DUSP2 N835A (Homo sapiens, UniProt Q8TEY7, N835A); assay: FP-monitored affinity measurements, USP33 DUSP2 single mutant; format: binding
T1 construct: USP33_DUSP2; Q8TEY7; DUSP2; 806; 921; 6xHis-GST (N, cleaved yes); made in house; host or cells: Escherichia coli BL21-Gold (DE3)
T1 sequence (Q8TEY7 806-921 N835A): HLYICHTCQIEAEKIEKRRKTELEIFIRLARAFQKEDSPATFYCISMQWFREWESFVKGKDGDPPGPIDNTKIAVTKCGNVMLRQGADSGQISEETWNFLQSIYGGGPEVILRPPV
Experimental: (§1) Proteins were expressed in Escherichia coli (E.coli) BL21-Gold (DE3) bacteria. The cDNAs encoding N-terminal 6-histidine-glutathione S-transferase tagged (6xHis-GST), 6xHis-tagged or GST-tagged protein domains in pETM33, pETM11, pGEX6P1 expression vectors respectively, were obtained from Genescript or kindly provided by MRC-PPU (Suppl. Data 1) The bacteria were transformed with the plasmid and grew at 37 °C in 2YT (5 g/L NaCl, 16 g/L tryptone and 10 g/L yeast extract) supplemented with Kanamycin (30 μg/mL) until reaching an OD600 of 0.7. Protein expression was induced with 0.3 mM isopropyl β-D-1 thiogalactopyranoside (IPTG) for 18 h at 18 °C while shaking. For zinc-finger domains, 50 μM of ZnSO4 was added during expression. […] For fluorescence polarization experiments, the proteins were not eluted from the beads, and the 6xHis-GST tag was cleaved overnight on GSH Sepharose beads at 4 °C while shaking with PreScission Protease in cleavage buffer (50 mM Tris pH 7.5, 150 mM NaCl, 1 mM DTT). […] The purity and size of the proteins were analyzed by SDS-PAGE electrophoresis.
(§2) The measurements were performed at room temperature in a non-binding black half area 96-well plate (Corning) with a total volume of 50 μL per well. […] The data were analyzed using GraphPad Prism version 9.2.0 for MacOS (GraphPad Software, San Diego, California USA, www.graphpad.com). […]

USP33 DUSP2 K863E-K865E = molecular target: T2, USP33 DUSP2 K863E-K865E (Homo sapiens, UniProt Q8TEY7, K863E/K865E); assay: FP-monitored affinity measurements, USP33 DUSP2 double mutant; format: binding
T2 construct: USP33_DUSP2; Q8TEY7; DUSP2; 806; 921; 6xHis-GST (N, cleaved yes); made in house; host or cells: Escherichia coli BL21-Gold (DE3)
T2 sequence (Q8TEY7 806-921 K863E/K865E): T1 sequence (Q8TEY7 806-921 N835A) with A30N, K58E, K60E
Experimental: as §1, §2

USP20 zf-UBP domain = molecular target: T3, USP20 zf-UBP domain (Homo sapiens, UniProt Q9Y2K6); assay: Peptide SPOT array, USP20 zf-UBP; format: binding; details: array of 120 peptides probed with GST-tagged zf-UBP domains of USP20 and USP33
T3 construct: USP20_UBP; Q9Y2K6; zf-UBP; 99; 6xHis-GST (N, cleaved yes); made in house; host or cells: Escherichia coli BL21-Gold (DE3)
Experimental: Peptides were synthesized on cellulose membranes with standard Fluoroenylmethylox-ycarbonyl (Fmoc) chemistry using a Multipep automated synthesizer at INTAVIS (Tübingen, Germany) or ordered from JPT (PepSpots). […] The images were analyzed in Fiji (ImageJ2 version 2.9.0).

FLAG-USP33 = assay: IP-MS of FLAG-USP33 and variants vs empty vector; format: cell-based, human
Experimental: For transfection, 1x10^6 HEK293 cells were seeded in 10 cm dishes with DMEM, 10% FBS, 1% L-G (without antibiotic) medium, incubated at 37 °C, with 5 % CO2 for 24 h. Cells were transfected with a transfection mix containing […] of Opti-MEM (Thermo Fisher Scientific), 20 μL of PEI stock (1 mg/mL) and […] of the desired cDNA. For co-transfection, 2.5 μg of DNA of each plasmid was used. The mix was vortexed for 15 s and incubated at room temperature for 15–20 min. The transfection mix was added to the dish and gently mixed. Plates were incubated at 37 °C for 36–48 h before harvesting. For USP33 constructs, 5 μM Bortezomib (proteasome inhibitor) was added 4 hours before harvesting the cells.
FLAG fusion proteins were immunoprecipitated from HEK293 cells transfected with plasmids encoding the protein of interest using the anti-FLAG M2 affinity gel from Sigma-Aldrich. Cell pellets were lysed with 100–200 μL/per dish lysis buffer (Pierce RIPA buffer, 1X protease inhibitor (Roche), 50 unit/μL of Benzonase Nuclease) rotating at 4 °C for 30–45 min. […] The cell lysate was clarified by centrifugation at 17,000 x g, at 4 °C for 12 min, and the supernatant was transferred to a clean, pre-chilled low-binding Eppendorf tube. […] The IP samples were centrifuged at 6500 x g at 4 °C for 30 s. The supernatant containing the unbound proteins was transferred to a clean tube. The resin was washed three times with 500 μL of TBS, centrifuged at 6500 x g at 4 °C for 30 s. The bound FLAG fusion protein was eluted with 100 μL of 150 ng/μL 3X FLAG peptide (Sigma) in TBS and incubated in the cold room for 1 h or overnight. The tube was centrifuged at 6500 x g at 4 °C for 30 s; the eluted proteins were transferred to a clean tube. The eluted proteins were prepared for analysis by western blot or Mass Spectrometry.
Immunoprecipitation (IP) was carried out as described above; four technical replicates of each IP condition were performed, and the empty vector was used as a negative control. The eluted protein was processed following the Strap-micro protocol (Protifi). The IP elution containing 1–100 μg protein was 1:1 mixed with 2X lysis buffer (10% SDS, 100 mM TEAB pH 8.5). […] Samples were vortexed, mixed with 165 μL of 100 mM TEAB in 90% methanol, and passed through an S-Trap micro column at 4000 g for 30 s to trap the proteins. The column was washed with 150 μL of 100 mM TEAB in 90% methanol (at 4,000 x g for 30 seconds) three times. The S-Trap column was centrifuged again and transferred to a clean 2 mL tube for digestion with 20 μL of digestion buffer (1 μg trypsin per 10 μg sample in 50 mM TEAB), at 37 °C overnight in a thermomixer without shaking. The digested peptides were eluted with […] of 50 mM TEAB in water, […] of 0.2 % formic acid in water, and […] of 50 % acetonitrile in water, centrifuging at 4000 x g for 1 min each time. The three elutions were pooled in a low-binding tube, placed on dry ice until frozen, dried in a SpeedVac vacuum (Thermo Scientific), and proceeded with the LCMS analysis.
Eluted peptides were resuspended in water supplemented with 0.015% dodecyl maltoside and 0.1% formic acid and were injected on a Vanquish Neo UHPLC System operating in trap and elute mode coupled to an Orbitrap Astral Mass Spectrometer (Thermo Fisher Scientific). […] Eluted peptides were analyzed using data-independent acquisition mode on the mass spectrometer.
Peptides were searched against the Uniprot Swissprot Human database (released on 02/01/2023) supplemented with the USP20 and USP33 mutants using DiaNN (v1.9.0)[62] operating in library-free mode. Data filtering and statistical analysis were carried out in Python (v3.9.0) using the packages pandas, numpy, sklearn, scipy, rpy2, Plotnine, and Plotly and R (v4.4.3) using the package limma.
Protein groups identified with a single peptide or quantified in fewer than three replicates in at least 1 condition were filtered out. […]

FLAG-USP20 = assay: IP-MS of FLAG-USP20 and variants vs empty vector; format: cell-based, human; details: IP-MS, FLAG-USP20-ΔUBP vs EV; comparison bh_2 Sample_Limma_ImpMedInt_USP20_UBP_domain/EV
Experimental: For transfection, 1x10^6 HEK293 cells were seeded in 10 cm dishes with DMEM, 10% FBS, 1% L-G (without antibiotic) medium, incubated at 37 °C, with 5 % CO2 for 24 h. Cells were transfected with a transfection mix containing 970 mL of Opti-MEM (Thermo Fisher Scientific), 20 μL of PEI stock (1 mg/mL) and 5 mg of the desired cDNA. For co-transfection, 2.5 μg of DNA of each plasmid was used. The mix was vortexed for 15 s and incubated at room temperature for 15–20 min. The transfection mix was added to the dish and gently mixed. Plates were incubated at 37 °C for 36–48 h before harvesting. For USP33 constructs, 5 μM Bortezomib (proteasome inhibitor) was added 4 hours before harvesting the cells.
FLAG fusion proteins were immunoprecipitated from HEK293 cells transfected with plasmids encoding the protein of interest using the anti-FLAG M2 affinity gel from Sigma-Aldrich. […] The cell lysate was clarified by centrifugation at 17,000 x g, at 4 °C for 12 min, and the supernatant was transferred to a clean, pre-chilled low-binding Eppendorf tube. […] The IP samples were centrifuged at 6500 x g at 4 °C for 30 s. The supernatant containing the unbound proteins was transferred to a clean tube. The resin was washed three times with 500 μL of TBS, centrifuged at 6500 x g at 4 °C for 30 s. The bound FLAG fusion protein was eluted with 100 μL of 150 ng/μL 3X FLAG peptide (Sigma) in TBS and incubated in the cold room for 1 h or overnight. The tube was centrifuged at 6500 x g at 4 °C for 30 s; the eluted proteins were transferred to a clean tube. The eluted proteins were prepared for analysis by western blot or Mass Spectrometry.
Immunoprecipitation (IP) was carried out as described above; four technical replicates of each IP condition were performed, and the empty vector was used as a negative control. The eluted protein was processed following the Strap-micro protocol (Protifi). The IP elution containing 1–100 μg protein was 1:1 mixed with 2X lysis buffer (10% SDS, 100 mM TEAB pH 8.5). […] Samples were vortexed, mixed with 165 μL of 100 mM TEAB in 90% methanol, and passed through an S-Trap micro column at 4000 g for 30 s to trap the proteins. The column was washed with 150 μL of 100 mM TEAB in 90% methanol (at 4,000 x g for 30 seconds) three times. The S-Trap column was centrifuged again and transferred to a clean 2 mL tube for digestion with 20 μL of digestion buffer (1 μg trypsin per 10 μg sample in 50 mM TEAB), at 37 °C overnight in a thermomixer without shaking. The digested peptides were eluted with 40 mL of 50 mM TEAB in water, 40 mL of 0.2 % formic acid in water, and 40 mL of 50 % acetonitrile in water, centrifuging at 4000 x g for 1 min each time. The three elutions were pooled in a low-binding tube, placed on dry ice until frozen, dried in a SpeedVac vacuum (Thermo Scientific), and proceeded with the LCMS analysis.
Protein groups identified with a single peptide or quantified in fewer than three replicates in at least 1 condition were filtered out. Protein group intensities were median normalized and missing values were imputed using a Gaussian distribution centered on the median with a downshift of 1.8 and width of 0.3 (relative to the standard deviation).

USP33 DUSP2 domain = molecular target: T4, USP33 DUSP2 domain (Homo sapiens, UniProt Q8TEY7); assay: FP-monitored affinity measurements, USP33 DUSP2; format: binding; details: USP33_DUSP2; direct FP titration (saturation) of the FITC-labelled peptide; read-out: KD
T4 construct: USP33_DUSP2; Q8TEY7; DUSP2; 806; 921; 6xHis-GST (N, cleaved yes); made in house; host or cells: Escherichia coli BL21-Gold (DE3)
T4 sequence (Q8TEY7 with tags, fused parts or gaps): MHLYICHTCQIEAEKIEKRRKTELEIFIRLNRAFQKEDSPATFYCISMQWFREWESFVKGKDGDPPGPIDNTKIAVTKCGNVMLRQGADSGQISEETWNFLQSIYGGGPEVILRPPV
Experimental: Proteins were expressed in Escherichia coli (E.coli) BL21-Gold (DE3) bacteria. The cDNAs encoding N-terminal 6-histidine-glutathione S-transferase tagged (6xHis-GST), 6xHis-tagged or GST-tagged protein domains in pETM33, pETM11, pGEX6P1 expression vectors respectively, were obtained from Genescript or kindly provided by MRC-PPU (Suppl. Data 1) The bacteria were transformed with the plasmid and grew at 37 °C in 2YT (5 g/L NaCl, 16 g/L tryptone and 10 g/L yeast extract) supplemented with Kanamycin (30 μg/mL) until reaching an OD600 of 0.7. Protein expression was induced with 0.3 mM isopropyl β-D-1 thiogalactopyranoside (IPTG) for 18 h at 18 °C while shaking. For zinc-finger domains, 50 μM of ZnSO4 was added during expression. The bacterial cultures were pelleted for 15 minutes at 4000 x g at 4 °C and stored at −20 °C until purification. The pellets were resuspended in lysis buffer (1× phosphate-buffered saline (PBS), 0.5 % Triton-X, 5 mM MgCl2, 10 μg/mL lysozyme, cOmplete^TM EDTA-free protease inhibitor cocktail (Roche), 10 μg/mL DNAseI) and incubated for 1 h shaking at 4 °C. […] The supernatant was incubated with glutathione (GSH) Sepharose (Cytiva) or Ni2+ Sepharose (Cytiva) for 1 h at 4 °C while shaking. The beads with the bound protein were washed with 1x PBS and eluted with 10 mM reduced glutathione in 50 mM Tris pH 8.0. For fluorescence polarization experiments, the proteins were not eluted from the beads, and the 6xHis-GST tag was cleaved overnight on GSH Sepharose beads at 4 °C while shaking with PreScission Protease in cleavage buffer (50 mM Tris pH 7.5, 150 mM NaCl, 1 mM DTT). The sample containing the cleaved domain was separated from the tag and protease and buffer-exchanged to 50 mM sodium phosphate buffer pH 7.4 with 1 mM DTT using a PD-10 desalting column (Cytiva). The purity and size of the proteins were analyzed by SDS-PAGE electrophoresis.
The measurements were performed at room temperature in a non-binding black half area 96-well plate (Corning) with a total volume of 50 μL per well. Peptides were obtained from GeneCust (France) with >95% purity. FITC-labeled peptides (N-terminally FITC-labeled without spacer and C-terminally amidated) were dissolved in dimethyl sulfoxide (DMSO), and unlabeled peptides (N-terminally acetylated and C-terminally amidated) were dissolved in 50 mM phosphate buffer pH 7.4. Saturation measurements were performed using a serial dilution of the protein domains in phosphate buffer (25 μL) and the addition of 10 nM FITC-labeled peptide (in phosphate buffer supplemented with 2 mM DTT) (25 μL). […] All measurements were performed in three technical replicates. The data were analyzed using GraphPad Prism version 9.2.0 for MacOS (GraphPad Software, San Diego, California USA, www.graphpad.com). The saturation curves were fitted to the quadratic equation, and the displacement curves were fitted to a sigmoidal dose-response equation as described previously.

T3 sequence (Q9Y2K6 4-99): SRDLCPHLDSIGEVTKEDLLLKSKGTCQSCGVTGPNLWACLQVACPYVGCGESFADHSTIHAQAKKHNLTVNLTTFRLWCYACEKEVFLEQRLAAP

Compound: CSCC[C@H](NC(=S)Nc1ccc2c(c1)C(=O)OC21c2ccc(O)cc2Oc2cc(O)ccc21)C(=O)N[C@@H](CC(=O)O)C(=O)N[C@@H](CC(=O)O)C(=O)N[C@@H](CC(=O)O)C(=O)N[C@@H](Cc1ccccc1)C(=O)N[C@@H](CCC(N)=O)C(=O)N[C@@H](CC(C)C)C(=O)N[C@@H](CCCNC(=N)N)C(=O)N[C@@H](CO)C(=O)N[C@@H](Cc1ccccc1)C(=O)N[C@@H](CC(=O)O)C(=O)N[C@@H](CCC(N)=O)C(=O)N[C@@H](CC(C)C)C(=O)N[C@@H](CO)C(N)=O [FITC-HIF1A568-581] ({FITC}-MDDDFQLRSFDQLS-NH2)
Kd (USP33 DUSP2 N835A; FP, FITC-labeled probe peptide, single mutant domain (Fig. 5F), technical triplicate, read-out: KD, USP33 DUSP2 N835A with FITC-labeled probe peptide): > 300 µM | Kd (USP33 DUSP2 K863E-K865E; FP, FITC-labeled probe peptide, double mutant domain (Fig. 5F), technical triplicate, read-out: KD, USP33 DUSP2 K863E-K865E with FITC-labeled probe peptide): > 300 µM

Compound: ESYT2
log2_FC (FLAG-USP33; IP-MS, FLAG-USP33 UBP mutant vs EV, comparison USP33_E86K_D90R/EV, Limma): 1.582 | log2_FC (FLAG-USP33; IP-MS, FLAG-USP33 vs EV, comparison USP33_wt/EV, Limma): 1.824 | log2_FC (FLAG-USP33; Table S7c USP33 MS_and_motif, bait USP33): 1.824 | log2_FC (FLAG-USP20): 1.764

Compound: TMEM131L
log2_FC (FLAG-USP20): 4.636

The remaining lines, values ahead:

binding in peptide SPOT array, USP20 versus USP33 zf-UBP (USP20 zf-UBP domain): only bound to USP20
Compound: TQNLEDREVLNGVQTE [PARD3B]

Kd (USP33 DUSP2 N835A; USP33_DUSP2_N835A, direct FP titration (saturation) of the FITC-labelled peptide, read-out: KD): ~353 µM | Kd (USP33 DUSP2 K863E-K865E; USP33_DUSP2_K863E/K865E, direct FP titration (saturation) of the FITC-labelled peptide, read-out: KD): ~319 µM | Kd (USP33 DUSP2 domain): 31.3 µM
Compound: CSCC[C@H](NC(=S)Nc1ccc2c(c1)C(=O)OC21c2ccc(O)cc2Oc2cc(O)ccc21)C(=O)N[C@@H](CC(=O)O)C(=O)N[C@@H](CC(=O)O)C(=O)N[C@@H](CC(=O)O)C(=O)N[C@@H](Cc1ccccc1)C(=O)N[C@@H](CCC(N)=O)C(=O)N[C@@H](CC(C)C)C(=O)N[C@@H](CCCNC(=N)N)C(=O)N[C@@H](CO)C(=O)N[C@@H](Cc1ccccc1)C(=O)N[C@@H](CC(=O)O)C(=O)N[C@@H](CCC(N)=O)C(=O)N[C@@H](CC(C)C)C(=O)N[C@@H](CO)C(N)=O [FITC_HIF1A] ({FITC}-MDDDFQLRSFDQLS-NH2)
